From article PMC10051656, “Phenylpyrazolone-1,2,3-triazole Hybrids as Potent Antiviral Agents with Promising SARS-CoV-2 Main Protease Inhibition Potential” (Pharmaceuticals, 2023)
“And” between values parts separate entries of the source, which are not always exact repeats. Equal entries are not always repeated. Where two headings read alike, the source gives them in different places.

Tests used:
SARS-CoV-2 Main protease = SARS-CoV-2 Main protease (Severe acute respiratory syndrome coronavirus 2, UniProt P0DTD1); assay: biochemical
SARS-CoV-2 = assay: microbe, parasite or virus in culture; type: cell-based; conditions: for API Value: ratio of 10 μM inhibition % of tested drug to the reference remdesivir
[1] = MTT cell viability / cytotoxicity in Vero E6 cells; design: cytotoxicity to Vero E6 cells: dose or concentration left out as unconfirmed; conditions: African green monkey
Vero E6 cells = assay: MTT cell viability / cytotoxicity in Vero E6 cells; design: cytotoxicity to Vero E6 cells: dose or concentration left out as unconfirmed; conditions: for IC50: read-out: Cytotoxicity (Vero E6) (IC50), Vero E6 cells, MTT test
SARS-CoV Main protease = conditions: cited from earlier work
[2] = system: Main protease of MERS-CoV; conditions: cited from earlier work
[3] = triplicate readings with SE, read-out: IC50 (μM) ± SE
[4] = Severe acute respiratory syndrome coronavirus 2, Vero C1008, 1 μM, infected Vero E6 cells, MOI 0.01, read-out: Anti-SARS-CoV-2 Effect Assay (%) 1 μM
[5] = Severe acute respiratory syndrome coronavirus 2, Vero C1008, 10 μM, infected Vero E6 cells, MOI 0.01, read-out: Anti-SARS-CoV-2 Effect Assay (%) 10 μM
[6] = Cytotoxicity (Vero E6) (IC50, μM), Vero E6 cells, MTT test

Structure (SMILES)	IC50 (SARS-CoV-2 Main protease; [3])	inhibition at 1 µM (SARS-CoV-2; [4])	inhibition at 10 µM (SARS-CoV-2; [5])	API Value (SARS-CoV-2)	IC50 [1, 6]	further results
CC1=NN(c2ccccc2)C(=O)/C1=C\c1ccc(OCc2cn(-c3ccc(C(=O)O)cc3)nn2)cc1 [6b]	> 200 µM	–	–	–	–	melting point: 205 to 206 °C
CC1=NN(c2ccc(Cl)cc2)C(=O)/C1=C\c1ccc(OCc2cn(-c3ccc(C)c(F)c3)nn2)cc1 [6h]	5.08 ± 3.5 µM	15.5 ± 0.003%	64.2%	0.66	33.7 ± 2.6 µM	–
CC1=NN(c2ccc(Cl)cc2)C(=O)/C1=C\c1ccc(OCc2cn(-c3ccc(Cl)c(Cl)c3)nn2)cc1 [6g]	200 ± 9.5 µM	12.23 ± 0.05%	38.74 ± 0.3%	0.41	235 ± 18 µM	–
CC(C)CC(NC(=O)OCc1ccccc1)C(=O)NC(CC1CCNC1=O)C(O)S(=O)(=O)O (centres unmarked) [GC-376, reference compound]	–	78.96 ± 0.67%	92.9 ± 1.15%	0.99	41.2 ± 1.1 µM	–
CC1=NN(c2ccc(Cl)cc2)C(=O)/C1=C\c1ccc(OCc2cn(CC(=O)Nc3ccc(C(=O)O)cc3)nn2)cc1 [6i]	3.17 µM and 7.55 µM and 3.1 µM and 3.16 µM	21.86 ± 0.09%	64%	0.67	22.1 µM	IC50 (Vero E6 cells): 21.1 ± 1.6 µM
O=C(O)c1ccc(/C=C2\C(=O)N(c3ccc(F)cc3)N=C2c2ccccc2)cc1 [compound 8]	–	–	–	–	–	IC50 (SARS-CoV Main protease): 6.8 µM
CC1=NN(c2ccc(Cl)cc2)C(=O)/C1=C\c1ccc(OCc2cn(CC(=O)Nc3ccc([N+](=O)[O-])cc3)nn2)cc1 [6l, (Z)-2-(4-((4-((1-(4-Chlorophenyl)-3-methyl-5-oxo-1H-pyrazol-4(5H)-ylidene)methyl)phenoxy)methyl)-1H-1,2,3-triazol-1-yl)-N-(4-nitrophenyl)acetamide]	135 ± 6.5 µM	8.84 ± 0.11%	46.91 ± 0.28%	–	32.6 ± 2.5 µM	–
CC1=NN(c2ccc(Cl)cc2)C(=O)/C1=C\c1ccc(OCc2cn(-c3ccc(F)cc3)nn2)cc1 [6d]	42.4 ± 3.8 µM	7.38 ± 0.007%	55.47 ± 0.27%	0.60	172 ± 13 µM	–
CC1=NN(c2ccccc2)C(=O)/C1=C\c1ccc(OCc2cn(CC(=O)Nc3ccc(F)cc3)nn2)cc1 [6k, (Z)-N-(4-Fluorophenyl)-2-(4-((4-((3-methyl-5-oxo-1-phenyl-1H-pyrazol-4(5H)-ylidene)methyl)phenoxy)methyl)-1H-1,2,3-triazol-1-yl)acetamide]	> 200 µM	–	–	–	–	IC50 (SARS-CoV-2 Main protease; unit inferred, read-out: IC50 (numbers printed in the chart of Figure 5)): 200 µM; melting point: 201 to 203 °C
COc1ccc(CNC(=O)Cn2cc(COc3ccc(/C=C4\C(=O)N(c5ccc(Cl)cc5)N=C4C)cc3)nn2)cc1 [6p, (Z)-2-(4-((4-((1-(4-Chlorophenyl)-3-methyl-5-oxo-1H-pyrazol-4(5H)-ylidene)methyl)phenoxy)methyl)-1H-1,2,3-triazol-1-yl)-N-(4-methoxybenzyl)acetamide]	23.7 ± 1.1 µM	9.5 ± 0.11%	~50%	0.54	20.1 ± 1.5 µM	–
N#Cc1ccc(N2N=C(c3ccccc3)/C(=C/c3ccc(C(=O)O)cc3)C2=O)cc1 [compound 7]	–	–	–	–	–	IC50 (SARS-CoV Main protease): 5.5 µM
CC1=NN(c2ccc(Cl)cc2)C(=O)/C1=C\c1ccc(OCc2cn(CC(=O)Nc3ccc(F)cc3)nn2)cc1 [6j, (Z)-2-(4-((4-((1-(4-Chlorophenyl)-3-methyl-5-oxo-1H-pyrazol-4(5H)-ylidene)methyl)phenoxy)methyl)-1H-1,2,3-triazol-1-yl)-N-(4-fluorophenyl)acetamide]	49.4 ± 2.4 µM	16.16 ± 0.03%	39.65 ± 0.25%	0.46	156 ± 12 µM	–
CC1=NN(c2ccc(Cl)cc2)C(=O)/C1=C\c1ccc(OCc2cn(-c3ccc(C(=O)O)cc3)nn2)cc1 [6a]	76 µM and 76.9 µM	10.8 ± 0.06%	19.3%	0.21	17.1 ± 13 µM	Anti-SARS-CoV-2 Effect Assay (%) 10 μM (SARS-CoV-2; 10 μM, infected Vero E6 cells, MOI 0.01): 19.27 ± 0.51%
CC1=NN(c2ccc(Cl)cc2)C(=O)/C1=C\c1ccc(OCc2cn(-c3ccc([N+](=O)[O-])cc3)nn2)cc1 [6e]	30.1 ± 1.4 µM	17.4 ± 0.19%	49.5 ± 1.01%	0.53	66.4 ± 5.1 µM	–
CCC(CC)COC(=O)[C@H](C)N[P@](=O)(OC[C@H]1O[C@@](C#N)(c2ccc3c(N)ncnn23)[C@H](O)[C@@H]1O)Oc1ccccc1 [REM, remdesivir, reference compound]	–	–	–	1.0	–	inhibition at 1 µM (SARS-CoV-2; Severe acute respiratory syndrome coronavirus 2, Vero C1008, read-out: Anti-SARS-CoV-2 Effect Assay (%) 1 μM): 89.6 ± 0.98%; inhibition at 10 µM (SARS-CoV-2; Severe acute respiratory syndrome coronavirus 2, Vero C1008, read-out: Anti-SARS-CoV-2 Effect Assay (%) 10 μM): 93.3 ± 1.17%; IC50 [1]: 61.8 ± 4.7 µM; cytotoxicity to Vero E6 cells (Vero E6 cells; positive control): no cytotoxicity
O=C(O)c1cccc(N2N=C(c3ccccc3)/C(=C/c3ccc(-c4ccccc4)o3)C2=O)c1 [compound 9]	–	–	–	–	–	IC50 (SARS-CoV Main protease): 6.4 µM; IC50 [2]: 5.8 µM
CC(=O)c1ccc(-n2cc(COc3ccc(/C=C4\C(=O)N(c5ccc(Cl)cc5)N=C4C)cc3)nn2)cc1 [6c]	81.1 ± 3.9 µM	4.46 ± 0.034%	24.5 ± 0.37%	0.26	92.1 ± 7 µM	–
CC1=NN(c2ccc(Cl)cc2)C(=O)/C1=C\c1ccc(OCc2cn(CC(=O)Nc3ccc(C)c(F)c3)nn2)cc1 [6m, (Z)-2-(4-((4-((1-(4-Chlorophenyl)-3-methyl-5-oxo-1H-pyrazol-4(5H)-ylidene)methyl)phenoxy)methyl)-1H-1,2,3-triazol-1-yl)-N-(3-fluoro-4-methylphenyl)acetamide]	25.7 ± 0.4 µM	9.55 ± 0.02%	~50%	0.49	189 ± 14 µM	–
CC(C)(C)c1ccc(N2N=C(c3ccccc3)/C(=C/c3ccc(-c4cc(Cl)ccc4C(=O)O)o3)C2=O)cc1 [compound 10]	–	–	–	–	–	IC50 (SARS-CoV Main protease): 5.8 µM; IC50 [2]: 7.4 µM
CC1=NN(c2ccc(Cl)cc2)C(=O)/C1=C\c1ccc(OCc2cn(-c3ccc(Cl)cc3)nn2)cc1 [6f]	144 ± 6.9 µM	1.54 ± 0.089%	30.2 ± 0.31%	0.31	51.4 ± 3.9 µM	–
CC1=NN(c2ccc(Cl)cc2)C(=O)/C1=C\c1ccc(OCc2cn(CC(=O)NCc3ccc(C)cc3)nn2)cc1 [6o, (Z)-2-(4-((4-((1-(4-Chlorophenyl)-3-methyl-5-oxo-1H-pyrazol-4(5H)-ylidene)methyl)phenoxy)methyl)-1H-1,2,3-triazol-1-yl)-N-(4-methylbenzyl)acetamide]	43.3 ± 2.1 µM	12.23 ± 0.1%	54.1 ± 0.61%	0.56	262 ± 20 µM	–
CC1=NN(c2ccc(Cl)cc2)C(=O)/C1=C\c1ccc(OCc2cn(CC(=O)NCc3ccc(F)cc3)nn2)cc1 [6q, (Z)-2-(4-((4-((1-(4-Chlorophenyl)-3-methyl-5-oxo-1H-pyrazol-4(5H)-ylidene)methyl)phenoxy)methyl)-1H-1,2,3-triazol-1-yl)-N-(4-fluorobenzyl)acetamide]	3.16 µM and 7.55 µM	12.9 ± 0.03%	79%	0.84	> 20 µM	IC50 (Vero E6 cells): 35.3 ± 2.7 µM
CC1=NN(c2ccc(Cl)cc2)C(=O)/C1=C\c1ccc(OCc2cn(CC(=O)NCc3ccc(Cl)cc3)nn2)cc1 [6n, (Z)-N-(4-Chlorobenzyl)-2-(4-((4-((1-(4-chlorophenyl)-3-methyl-5-oxo-1H-pyrazol-4(5H)-ylidene)methyl)phenoxy)methyl)-1H-1,2,3-triazol-1-yl)acetamide]	86.6 ± 4.1 µM	3.73 ± 0.01%	51.13 ± 0.14%	0.55	23.1 ± 1.8 µM	–
Cc1cccc(C)c1OCC(=O)N[C@@H](Cc1ccccc1)[C@@H](O)C[C@H](Cc1ccccc1)NC(=O)[C@H](C(C)C)N1CCCNC1=O [lopinavir, reference compound]	82.2 µM	–	–	–	–	–
